Measurements reported in patent US12606544B2, “JAK1 selective kinase inhibitor” (DIZAL (JIANGSU) PHARMACEUTICAL CO., LTD., priority 2019, dated 2026).

Assays:
[1] = target: T1, TYK2 (Homo sapiens, UniProt P29597); assay: Lance Ultra Kinase Assay, recombinant TYK2; format: biochemical; conditions: 5 mM ATP
T1 construct: purchased Carna Biosciences
Method in brief: (§1)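 Each recombinant kinase preincubated with or without compound 15 min at room temperature, then reaction started with 5 mM ATP and substrate peptide for 60 min. Stopped with EDTA-containing detection mix; TR-FRET read at ex 320 nm, 665/615 nm emission ratio taken as kinase activity.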

[2] = Metabolic stability in rat hepatocytes; format: in vitro ADME; conditions: 1 μM compound, male rat hepatocytes
Experimental: (§2) Rat hepatocytes in male gender and human liver microsome were obtained from commercial vendors (e.g., BioreclamationIVT) and stored at −150° C. prior to use.
For metabolic stability assay with rat heptatocytes, vials of cryopreserved hepatocytes or microsome were removed from storage, ensured that vials remain at cryogenic temperatures. 1 μM of each test compound (in Acetonitrile; 0.01% DMSO) was incubated with 250 μL of hepatocyte cells (1×10^6 cells/ml) in a 96 deep well plate. […] 40 μL of supernatant was diluted to 200 μL with pure water and analyzed using LC-MS/MS.
In vitro hepatocyte clearance was estimated based on determination of elimination half-life (T1/2) of compounds disappearance from their initial concentrations. Peak area ratios of each compound (test or control) to IS was calculated. Ln (% Control) versus Incubation Time (min) curve was plotted, and the slope of a linear fitting line was calculated. Drug elimination rate constant k (min−1), T1/2 (min), and in vitro intrinsic clearance CLint (μL/min/E6) was calculated according to the following equations: k=−slope T1/2=0.693/k CLint=k/Chep Where Chep (cells×μL^−1) is the cell concentration in the incubation system.

[3] = target: T2, JAK2 (Homo sapiens, UniProt O60674); assay: Lance Ultra Kinase Assay, recombinant JAK2; format: biochemical; conditions: 5 mM ATP
T2 construct: purchased Carna Biosciences
T2 sequence (O60674 whole entry): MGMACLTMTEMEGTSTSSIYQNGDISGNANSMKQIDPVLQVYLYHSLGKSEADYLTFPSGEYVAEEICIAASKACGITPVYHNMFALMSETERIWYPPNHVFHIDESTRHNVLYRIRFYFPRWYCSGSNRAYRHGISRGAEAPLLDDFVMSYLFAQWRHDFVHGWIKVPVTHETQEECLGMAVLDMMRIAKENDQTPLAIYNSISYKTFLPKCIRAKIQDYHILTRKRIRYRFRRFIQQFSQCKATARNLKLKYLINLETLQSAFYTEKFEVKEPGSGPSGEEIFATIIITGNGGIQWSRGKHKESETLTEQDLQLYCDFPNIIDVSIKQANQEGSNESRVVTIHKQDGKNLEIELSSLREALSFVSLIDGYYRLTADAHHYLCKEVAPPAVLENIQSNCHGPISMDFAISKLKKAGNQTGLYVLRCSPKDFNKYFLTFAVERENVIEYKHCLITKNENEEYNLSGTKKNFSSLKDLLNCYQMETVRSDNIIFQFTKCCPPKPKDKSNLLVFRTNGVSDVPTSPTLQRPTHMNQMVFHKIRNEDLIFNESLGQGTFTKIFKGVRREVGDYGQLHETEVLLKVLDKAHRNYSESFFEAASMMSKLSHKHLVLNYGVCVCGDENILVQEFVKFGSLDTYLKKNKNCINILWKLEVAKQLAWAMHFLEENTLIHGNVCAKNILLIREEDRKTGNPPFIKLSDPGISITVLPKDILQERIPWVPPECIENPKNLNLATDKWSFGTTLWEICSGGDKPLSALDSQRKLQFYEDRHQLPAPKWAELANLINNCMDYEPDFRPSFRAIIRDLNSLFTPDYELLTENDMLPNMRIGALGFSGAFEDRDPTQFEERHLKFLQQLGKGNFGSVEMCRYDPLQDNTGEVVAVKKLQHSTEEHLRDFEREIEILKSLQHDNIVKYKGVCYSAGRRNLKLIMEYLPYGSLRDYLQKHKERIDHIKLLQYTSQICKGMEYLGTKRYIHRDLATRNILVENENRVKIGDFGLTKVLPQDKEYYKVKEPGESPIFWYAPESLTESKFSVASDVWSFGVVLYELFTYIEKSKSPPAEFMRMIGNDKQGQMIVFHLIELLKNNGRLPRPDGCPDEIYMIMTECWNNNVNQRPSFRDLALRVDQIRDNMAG
Method in brief: as §1

[4] = Pharmacokinetics in plasma and lung in mouse, intratracheal instillation; format: in vivo; conditions: male CD1 mice; for half-life / Kp at 5 min / Kp at 1 h: mouse; for half-life: lung, intratracheal instillation, read-out: Lung T1/2 (converted); for Kp at 5 min / Kp at 1 h: lung/plasma, other: intratracheal instillation; for Kp at 5 min: read-out: Conc. Ratio (Lung/Plasma) 5 min; for Kp at 1 h: read-out: Conc. Ratio (Lung/Plasma) 1 hr
Experimental: Lung PK of the compounds were tested via Intratracheal (IT) instillation administration in male CD1 Mice. Plasma and lung levels of test compounds and ratios thereof were determined in the following manner. Test compounds were dosed cassettely as the formulation of 0.4 mg/mL suspension of 0.5% HPMC, 0.1% Tween 80 in saline. The animal was anesthetized using 5% of isoflurane for 5 min, open its mouth and take out the tongue, the light was focused on the neck of the mouse and localize the trachea, and the syringe was inserted into the trachea while the trachea is in the open state, and the test compounds were inject into the trachea. At various time points (typically 5 min, 1, 4, 24 hours) post dosing, approximately 0.250 mL blood samples were removed via cardiac puncture and intact lungs were excised from the mice. Each blood sample was transferred into plastic micro centrifuge tubes containing K2EDTA. Blood samples were then centrifuged (Eppendorf centrifuge, 5804R) for 4 minutes at approximately 12,000 rpm at 4° C. to collect plasma. The mice will be fully exsanguinated prior to tissue collection. Lung samples will be collected at adopted time point and the whole lung were weighted and homogenized. Concentrations of test compounds in the plasma and lung samples were analyzed using a LC-MS/MS method. WinNonlin (Phoenix™) or other similar software will be used for pharmacokinetic calculations.

[5] = system: phosphorylation of STAT6; assay: Cellular p-STAT6 assay, IL-13 stimulated THP-1 cells, flow cytometry; format: cell-based; conditions: Homo sapiens, THP-1, THP-1 cells, IL-13 10 ng/ml; read-out: pSTAT6 IC50
Method in brief: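 THP-1 cells (2×10^5/well, RPMI1640 + 10% FBS) preincubated 60 min at room temperature with compound (1 μM to 0.3 nM), then stimulated 30 min with IL-13 at 10 ng/ml. Fixed, methanol-permeabilized cells stained with PE anti-pSTAT6 and read by flow cytometry; IC50 from dose-response curves.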

[6] = target: T3, JAK3 (Homo sapiens, UniProt P52333); assay: Lance Ultra Kinase Assay, recombinant JAK3; format: biochemical; conditions: 5 mM ATP
T3 construct: purchased Carna Biosciences
T3 sequence (P52333 1-1124): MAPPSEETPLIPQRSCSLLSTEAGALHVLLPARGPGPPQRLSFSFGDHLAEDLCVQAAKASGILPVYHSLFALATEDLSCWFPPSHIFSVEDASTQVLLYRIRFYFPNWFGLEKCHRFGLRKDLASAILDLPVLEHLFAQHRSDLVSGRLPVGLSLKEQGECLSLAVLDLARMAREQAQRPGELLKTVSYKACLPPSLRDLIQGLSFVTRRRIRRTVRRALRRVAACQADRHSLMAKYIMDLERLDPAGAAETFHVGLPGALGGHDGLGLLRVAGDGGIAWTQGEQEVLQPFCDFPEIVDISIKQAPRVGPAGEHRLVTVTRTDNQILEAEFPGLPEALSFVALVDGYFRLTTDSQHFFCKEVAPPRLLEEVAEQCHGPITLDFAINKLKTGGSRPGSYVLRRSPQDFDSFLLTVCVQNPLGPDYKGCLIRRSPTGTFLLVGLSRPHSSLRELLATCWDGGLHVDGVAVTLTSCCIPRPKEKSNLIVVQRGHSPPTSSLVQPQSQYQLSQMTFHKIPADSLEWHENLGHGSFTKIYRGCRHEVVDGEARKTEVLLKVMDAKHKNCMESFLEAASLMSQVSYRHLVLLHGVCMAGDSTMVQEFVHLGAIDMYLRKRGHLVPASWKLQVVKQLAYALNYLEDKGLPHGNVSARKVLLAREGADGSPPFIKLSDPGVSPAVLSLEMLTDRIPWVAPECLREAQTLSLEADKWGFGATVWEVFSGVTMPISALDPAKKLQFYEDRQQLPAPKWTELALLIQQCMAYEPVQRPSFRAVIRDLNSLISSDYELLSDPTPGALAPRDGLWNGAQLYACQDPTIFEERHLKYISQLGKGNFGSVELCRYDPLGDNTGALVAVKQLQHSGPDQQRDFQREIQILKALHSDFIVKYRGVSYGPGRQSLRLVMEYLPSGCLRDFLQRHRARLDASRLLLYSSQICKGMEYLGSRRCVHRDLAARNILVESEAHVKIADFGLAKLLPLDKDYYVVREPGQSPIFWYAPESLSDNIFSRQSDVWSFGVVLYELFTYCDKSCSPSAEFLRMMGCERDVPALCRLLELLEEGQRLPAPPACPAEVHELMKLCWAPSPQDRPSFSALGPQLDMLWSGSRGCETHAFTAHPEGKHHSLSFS
Method in brief: as §1

[7] = target: T4, JAK1 (Homo sapiens, UniProt P23458); assay: Lance Ultra Kinase Assay, recombinant JAK1; format: biochemical; conditions: 5 mM ATP
T4 construct: purchased Carna Biosciences
T4 sequence (P23458 whole entry): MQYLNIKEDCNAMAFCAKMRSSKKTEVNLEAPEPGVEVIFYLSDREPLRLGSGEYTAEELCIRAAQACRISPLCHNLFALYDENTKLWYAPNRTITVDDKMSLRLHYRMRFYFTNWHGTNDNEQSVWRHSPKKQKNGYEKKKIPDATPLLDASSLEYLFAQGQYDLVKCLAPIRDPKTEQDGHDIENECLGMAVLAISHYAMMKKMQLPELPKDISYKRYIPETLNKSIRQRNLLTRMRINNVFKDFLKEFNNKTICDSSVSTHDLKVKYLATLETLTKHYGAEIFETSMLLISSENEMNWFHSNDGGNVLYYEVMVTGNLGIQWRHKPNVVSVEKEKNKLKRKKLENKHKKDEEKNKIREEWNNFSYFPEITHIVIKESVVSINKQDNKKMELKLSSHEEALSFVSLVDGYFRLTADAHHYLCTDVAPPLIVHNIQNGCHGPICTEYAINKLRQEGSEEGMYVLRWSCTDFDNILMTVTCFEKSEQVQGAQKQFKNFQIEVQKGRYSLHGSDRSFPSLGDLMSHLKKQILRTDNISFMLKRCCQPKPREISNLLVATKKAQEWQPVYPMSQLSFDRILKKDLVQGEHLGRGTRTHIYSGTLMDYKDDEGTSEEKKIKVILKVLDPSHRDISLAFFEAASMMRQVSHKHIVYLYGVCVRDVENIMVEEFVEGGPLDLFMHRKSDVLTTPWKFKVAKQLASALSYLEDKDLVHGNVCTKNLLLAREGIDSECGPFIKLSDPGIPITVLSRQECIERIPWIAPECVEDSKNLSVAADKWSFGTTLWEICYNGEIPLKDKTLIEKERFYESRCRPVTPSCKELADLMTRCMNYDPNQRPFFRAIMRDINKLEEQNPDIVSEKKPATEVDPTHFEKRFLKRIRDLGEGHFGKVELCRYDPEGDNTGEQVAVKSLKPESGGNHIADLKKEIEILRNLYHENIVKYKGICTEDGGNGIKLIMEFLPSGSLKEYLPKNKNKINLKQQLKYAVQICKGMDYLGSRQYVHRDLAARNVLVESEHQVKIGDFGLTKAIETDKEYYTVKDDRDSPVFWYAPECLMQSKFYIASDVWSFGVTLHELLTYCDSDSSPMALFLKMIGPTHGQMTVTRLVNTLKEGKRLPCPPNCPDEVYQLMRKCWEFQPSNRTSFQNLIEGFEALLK
Method in brief: as §1

[8] = Metabolic stability in human liver microsome; format: in vitro ADME; conditions: human, pooled human liver microsomes, pH 7.4, 1 μM compound, 1 mg/mL microsomes, NADPH
Experimental: as §2
For metabolic stability assay with human liver microsome, 1 μM of each test compound was incubated with 1 mg/mL of microsomes (Pooled HLM with 20 mg/ml protein cone) at 37° C. in 250 μL of buffer (100 mM phosphate buffer, pH-7.4) containing 1 mM NADPH solution. […] was quenched with 5 volumes chilled acetonitrile at different time points 0, 0.5, 5, 10, 15, 20 and 30 min in a fresh 96 well plate. The quench plate was centrifuged at 4000 rpm for 15 min. 40 μL of supernatant was diluted to 200 μL with pure water and analyzed using LC-MS/MS. […]

T1 sequence (P29597 whole entry): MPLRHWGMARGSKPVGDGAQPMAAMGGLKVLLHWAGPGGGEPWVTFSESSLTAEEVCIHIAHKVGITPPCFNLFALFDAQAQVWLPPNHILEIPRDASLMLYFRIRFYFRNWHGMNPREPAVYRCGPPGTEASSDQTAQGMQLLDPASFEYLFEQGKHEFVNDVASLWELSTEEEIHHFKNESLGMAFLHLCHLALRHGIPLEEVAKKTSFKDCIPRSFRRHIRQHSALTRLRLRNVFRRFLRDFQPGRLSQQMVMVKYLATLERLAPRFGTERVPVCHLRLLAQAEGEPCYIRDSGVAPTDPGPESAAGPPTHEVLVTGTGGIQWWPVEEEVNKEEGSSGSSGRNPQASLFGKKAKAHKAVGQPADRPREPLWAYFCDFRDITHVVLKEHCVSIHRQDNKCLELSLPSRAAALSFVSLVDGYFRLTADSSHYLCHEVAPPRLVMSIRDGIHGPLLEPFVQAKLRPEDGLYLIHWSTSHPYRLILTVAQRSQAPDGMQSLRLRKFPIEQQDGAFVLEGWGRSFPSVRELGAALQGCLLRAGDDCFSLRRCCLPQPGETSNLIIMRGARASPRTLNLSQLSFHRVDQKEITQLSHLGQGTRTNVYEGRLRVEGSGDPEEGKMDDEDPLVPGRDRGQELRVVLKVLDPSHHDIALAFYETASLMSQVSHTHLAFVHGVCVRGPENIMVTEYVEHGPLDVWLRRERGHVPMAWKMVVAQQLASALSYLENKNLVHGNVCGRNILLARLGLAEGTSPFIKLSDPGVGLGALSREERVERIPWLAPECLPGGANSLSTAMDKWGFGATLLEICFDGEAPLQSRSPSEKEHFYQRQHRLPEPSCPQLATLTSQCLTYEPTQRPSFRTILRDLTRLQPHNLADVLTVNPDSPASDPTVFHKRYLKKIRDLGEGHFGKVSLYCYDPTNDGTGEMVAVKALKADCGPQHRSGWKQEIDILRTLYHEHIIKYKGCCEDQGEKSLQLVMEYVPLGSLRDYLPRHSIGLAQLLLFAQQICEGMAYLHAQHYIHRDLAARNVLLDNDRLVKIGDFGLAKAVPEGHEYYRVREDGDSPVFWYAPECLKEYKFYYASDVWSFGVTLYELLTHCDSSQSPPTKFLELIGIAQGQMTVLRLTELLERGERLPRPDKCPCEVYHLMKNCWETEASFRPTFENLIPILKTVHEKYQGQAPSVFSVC

Row | SMILES | IC50 [1] | Rat Hepatocyte CLint [2] | IC50 [3] | % Dose in Lung 5 min [4] | % Dose in Lung 1 hr [4] | half-life [4] | Kp at 5 min [4] | Kp at 1 h [4] | IC50 [5] | IC50 [6] | IC50 [7] | microsomal CLint at 1 μM [8]
1 | CCC(=O)Nc1ccc(Nc2ncc(F)c(-c3c[nH]c4c(NC(=O)[C@@H](COC)N5CCN(C)CC5)cccc34)n2)cn1 [Example 5, (R)-N-(3-(5-fluoro-2-((6-propionamidopyridin-3-yl)amino)pyrimidin-4-yl)-1H-indol-7-yl)-3-methoxy-2-(4-methylpiperazin-1-yl)propanamide] | 764 nM | 11.0 μL/min/10^6 cells | 268 nM | 101.6% | 54.0% | 6.1 h | 2100 | 2940 | 5.1 nM | > 10000 nM | 0.19 nM | 73.9 µL/min/mg
2 | COC[C@H](C(=O)Nc1cccc2c(-c3nc(Nc4ccc5sc(CO)nc5c4)ncc3F)c[nH]c12)N1CCN(C)CC1 [Example 38, (R)-N-(3-(5-fluoro-2-((2-(hydroxymethyl)benzo[d]thiazol-5-yl)amino)pyrimidin-4-yl)-1H-indol-7-yl)-3-methoxy-2-(4-methylpiperazin-1-yl)propanainide] | 726 nM | 117.1 μL/min/10^6 cells | 65 nM | 79.9% | 19.4% | 3.9 h | 965 | 1780 | 11.8 nM | > 10000 nM | 0.13 nM | 10.9 µL/min/mg
3 | COC[C@H](C(=O)Nc1cccc2c(-c3nc(Nc4ccc(-c5cnco5)nc4)ncc3F)c[nH]c12)N1CCN(C)CC1 [Example 40, (R)-N-(3-(5-fluoro-2-((6-(oxazol-5-yl)pyridin-3-yl)amino)pyrimidin-4-yl)-1H-indol-7-yl)-3-methoxy-2-(4-methylpiperazin-1-yl)propanamide] | 2510 nM | 36.4 μL/min/10^6 cells | 219 nM | 58.6% | 23.0% | 4.6 h | 824 | 1440 | 12.1 nM | > 10000 nM | 0.21 nM | 50.4 µL/min/mg
4 | COC[C@H](C(=O)Nc1cccc2c(-c3nc(Nc4cnn(-c5cccc(CO)c5)c4)ncc3F)c[nH]c12)N1CCN(C)CC1 [Example 67, (R)-N-(3-(5-fluoro-2-((1-(3-(hydroxymethyl)phenyl)-1H-pyrazol-4-yl)amino)pyrimidin-4-yl)-1H-indol-7-yl)-3-methoxy-2-(4-methylpiperazin-1-yl)propanamide] | 609 nM | 153.6 μL/min/10^6 cells | 35 nM |  |  |  |  |  | 20.6 nM | 6770 nM | 0.18 nM | 19.5 µL/min/mg

The next lines start with the values.

Row | IC50 [1] | Rat Hepatocyte CLint [2] | IC50 [3] | % Dose in Lung 5 min [4] | % Dose in Lung 1 hr [4] | half-life [4] | Kp at 5 min [4] | Kp at 1 h [4] | IC50 [5] | IC50 [6] | IC50 [7] | microsomal CLint at 1 μM [8] | SMILES
5 | 1090 nM | 9.5 μL/min/10^6 cells | 202 nM | 18.1% | 13.4% | 29.9 h | 399 | 3260 | 4.3 nM | > 10000 nM | 0.25 nM | 10.6 µL/min/mg | COC[C@H](C(=O)Nc1cccc2c(-c3nc(Nc4ccnc(CO)c4)ncc3F)c[nH]c12)N1CCN(C)CC1 [Example 2, (R)-N-(3-(5-fluoro-2-((2-(hydroxymethyl)pyridin-4-yl)amino)pyrimidin-4-yl)-1H-indol-7-yl)-3-methoxy-2-(4-methylpiperazin-1-yl)propanamide]
6 | 850 nM | 38.4 μL/min/10^6 cells | 183 nM | 62.7% | 13.4% | 3.5 h | 296 | 1590 | 6.2 nM | > 10000 nM | 0.16 nM | 7.2 µL/min/mg | COC[C@H](C(=O)Nc1cccc2c(-c3nc(Nc4ccc(NC(=O)CO)nc4)ncc3F)c[nH]c12)N1CCN(C)CC1 [Example 8, (R)-N-(3-(5-fluoro-2-((6-(2-hydroxyacetamido)pyridin-3-yl)amino)pyrimidin-4-yl)-1H-indol-7-yl)-3-methoxy-2-(4-methylpiperazin-1-yl)propanamide]
